The values that follow come from patent publication US8114880B2, “Piperidine or piperazine substituted tetrahydro-naphthalene-1-carboxylic acid MTP inhibiting compounds” (Janssen Pharmaceutica N.V., priority 2006, dated 2012).

One assay deals with MTP (Homo sapiens, UniProt P55157). As to the kind of experiment: MTP assay (triglyceride transfer from donor to acceptor vesicles). Format: biochemical. Conditions: MTP activity, percent triglyceride transfer from donor to acceptor vesicles, 37° C. The method, boiled down:
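Radiolabelled triglyceride transfer from donor vesicles (phosphatidylcholine, 7.5 mol % cardiolipin, 0.25 mol % glycerol tri[1-^14C]-oleate) to phosphatidylcholine acceptor vesicles with BSA, pH 7.5 Tris buffer; compounds in DMSO (0.13% final), 5 min preincubation at 37° C before MTP addition. Donor vesicles removed on DEAE-52; acceptor-supernatant ^14C counts give percent transfer.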

A further assay concerns HepG2 cells. As to the kind of experiment: Quantification of the secretion of ApoB. Format: cell-based. Particulars: Homo sapiens, HepG2, 24 h, 24 hours of incubation, pIC50 = -log IC50. On the procedure:
HepG2 cells were cultured in 24-well plates in MEM Rega 3 containing 10% fetal calf serum. At 70% confluency, the medium was changed and the test compound or carrier (DMSO, 0.4% final concentration) was added. After 24 hours of incubation, the medium was transferred to Eppendorf tubes and cleared by centrifugation. A sheep antibody directed against either apoB was added to the supernatant and the mixture was kept at 8° C. for 24 hours. Then, rabbit anti-sheep antibody was added and the immune complex was allowed to precipitate for 24 hours at 8° C. The immunoprecipitate was pelleted by centrifugation for 25 minutes at 1320 g and washed twice with a buffer containing 40 mM Mops, 40 mM NaH2PO4, 100 mM NaF, 0.2 mM DTT, 5 mM EDTA, 5 mM EGTA, 1% Triton-X-100, 0.5% sodium deoxycholate (DOC), 0.1% SDS, 0.2 μM leupeptin and 0.2 μM PMSF. Radioactivity in the pellet was quantified by liquid scintillation counting. The IC50 values are usually converted to pIC50 values (=−log IC50 value) for ease of use.

MTP, sequence (P55157 19-894, species assumed): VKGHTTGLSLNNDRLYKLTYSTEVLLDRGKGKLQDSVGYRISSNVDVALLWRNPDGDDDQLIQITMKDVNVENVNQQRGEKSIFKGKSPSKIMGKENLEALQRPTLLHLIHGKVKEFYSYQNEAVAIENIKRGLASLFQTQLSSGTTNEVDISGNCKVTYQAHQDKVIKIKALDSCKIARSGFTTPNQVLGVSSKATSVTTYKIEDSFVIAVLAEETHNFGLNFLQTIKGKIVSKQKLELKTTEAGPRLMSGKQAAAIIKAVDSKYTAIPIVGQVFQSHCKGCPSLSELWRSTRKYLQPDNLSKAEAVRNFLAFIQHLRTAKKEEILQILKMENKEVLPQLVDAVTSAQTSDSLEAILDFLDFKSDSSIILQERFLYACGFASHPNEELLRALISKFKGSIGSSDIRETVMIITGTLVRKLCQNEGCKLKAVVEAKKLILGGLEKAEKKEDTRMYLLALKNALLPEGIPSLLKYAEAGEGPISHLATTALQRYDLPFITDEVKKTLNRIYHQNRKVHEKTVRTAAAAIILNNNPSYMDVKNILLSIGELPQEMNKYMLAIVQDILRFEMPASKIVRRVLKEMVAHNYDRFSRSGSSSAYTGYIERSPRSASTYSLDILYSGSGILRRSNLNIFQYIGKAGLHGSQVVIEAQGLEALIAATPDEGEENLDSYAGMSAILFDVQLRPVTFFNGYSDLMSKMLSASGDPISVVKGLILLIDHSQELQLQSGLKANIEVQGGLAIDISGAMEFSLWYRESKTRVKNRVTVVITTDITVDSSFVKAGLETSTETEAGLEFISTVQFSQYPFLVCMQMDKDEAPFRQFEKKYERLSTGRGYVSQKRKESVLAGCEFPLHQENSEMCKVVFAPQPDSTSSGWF
MTP, sequence (P07237 18-508 partner, species assumed): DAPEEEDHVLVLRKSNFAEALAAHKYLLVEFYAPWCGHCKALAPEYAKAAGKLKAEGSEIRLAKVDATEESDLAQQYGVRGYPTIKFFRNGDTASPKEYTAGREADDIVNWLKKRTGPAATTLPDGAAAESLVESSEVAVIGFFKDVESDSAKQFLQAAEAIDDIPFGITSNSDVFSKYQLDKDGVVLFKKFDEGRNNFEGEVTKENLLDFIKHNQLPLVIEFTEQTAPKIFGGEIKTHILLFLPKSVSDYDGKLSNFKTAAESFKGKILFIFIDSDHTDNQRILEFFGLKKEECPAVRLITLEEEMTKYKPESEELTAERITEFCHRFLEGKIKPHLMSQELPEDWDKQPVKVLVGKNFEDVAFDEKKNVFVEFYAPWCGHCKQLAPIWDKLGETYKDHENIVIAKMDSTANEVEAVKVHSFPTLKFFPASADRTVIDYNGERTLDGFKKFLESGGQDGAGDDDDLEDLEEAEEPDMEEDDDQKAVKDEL

For `CCCOC(=O)CC[C@H](NC(=O)[C@@]1(c2ccccc2)CC[C@H](C(=O)N2CCC(NC(=O)c3ccccc3OC)CC2)c2ccccc21)C(=O)OCCC` [Co. No. 247], the results for the half-inhibitory concentration (IC50) at MTP and in the assay with HepG2 cells were 5.96 nM and 382 nM, respectively.

For the compound `COC(=O)CCNC(=O)[C@@]1(c2ccccc2)CC[C@H](C(=O)N2CCC(NC(=O)c3cccnc3OC)CC2)c2ccccc21` [Co. No. 254], the IC50 (usually the concentration that inhibits the measured activity by half) against MTP was 3 nM; in the assay with HepG2 cells, 17.1 nM.

Regarding `COC(=O)CNC(=O)[C@@]1(c2ccccc2)CC[C@H](C(=O)N2CCC(NC(=O)c3ccccc3OC)CC2)c2ccccc21` [Co. No. 64], the IC50 at MTP was 3.87 nM; in the assay with HepG2 cells, 17.8 nM.

On to `CCOC(=O)[C@@H](C)NC(=O)[C@@]1(c2ccccc2)CC[C@H](C(=O)N2CCC(NC(=O)c3ccccc3OC)CC2)c2ccccc21` [Co. No. 67], for which the IC50 on MTP was 20.2 nM; in the assay on HepG2 cells it was 873 nM.

`CCOC(=O)NCCCC[C@H](NC(=O)[C@@]1(c2ccccc2)CC[C@H](C(=O)N2CCC(NC(=O)c3ccccc3OC)CC2)c2ccccc21)C(=O)OCC` [Co. No. 211]: the IC50 on MTP was 6.1 nM; in the assay with HepG2 cells, 95.7 nM.

In the case of `COc1ccccc1C(=O)NC1CCN(C(=O)[C@H]2CC[C@@](C(=O)NCCCCCC(=O)OC(C)(C)C)(c3ccccc3)c3ccccc32)CC1` [Co. No. 209], the results for the IC50 against MTP and in the assay on HepG2 cells were 36.2 nM and over 1000 nM, respectively.

Turning to `COC(=O)[C@@H](CCCCNC(=O)OC(C)(C)C)NC(=O)[C@@]1(c2ccccc2)CC[C@H](C(=O)N2CCC(NC(=O)c3ccccc3OC)CC2)c2ccccc21` [Co. No. 215], the IC50 against MTP is 2.92 nM; in the assay on HepG2 cells it was 18.4 nM.

On to `COC(=O)CCCNC(=O)[C@@]1(c2ccccc2)CC[C@H](C(=O)N2CCC(NC(=O)c3ccccc3OC)CC2)c2ccccc21` [Co. No. 201], for which the IC50 is 7.76 nM against MTP and over 1000 nM in the assay with HepG2 cells.

For `CCCOc1cccnc1C(=O)NC1CCN(C(=O)[C@@H]2CC[C@](C(=O)OC)(c3ccccc3)c3ccccc32)CC1` [Co. No. 58], the IC50 at MTP is 149 nM; in the assay with HepG2 cells, 2.04 nM.

Regarding `COc1ccccc1C(=O)NC1CCN(C(=O)[C@H]2CC[C@@](C(=O)N[C@@H](C(=O)OC(C)(C)C)C(C)C)(c3ccccc3)c3ccccc32)CC1` [Co. No. 103], the IC50 against MTP was 61 nM; with HepG2 cells, 382 nM.

On to `CCOC(=O)C[C@H](NC(=O)[C@@]1(c2ccccc2)CC[C@H](C(=O)N2CCC(NC(=O)c3ccccc3OC)CC2)c2ccccc21)C(=O)OC` [Co. No. 73], for which the IC50 is over 100 nM against MTP and over 1000 nM in the assay with HepG2 cells.

Consider `CCCOC(=O)[C@]1(c2ccccc2)CC[C@@H](C(=O)N2CCC(NC(=O)c3ccccc3N3CCOCC3)CC2)c2ccccc21` [Co. No. 260], for which the results for the IC50 on MTP and in the assay on HepG2 cells were 3.64 nM and 6.34 nM, respectively.

Turning to `COC(=O)[C@]1(c2ccccc2)CC[C@@H](C(=O)N2CCC(NC(=O)c3cccc(OC)c3OC)CC2)c2ccccc21` [Co. No. 49], the IC50 against MTP was 18.1 nM; with HepG2 cells, 638 nM.

Take `Cn1cccc(C(=O)NC2CCN(C(=O)[C@H]3CC[C@@](C(=O)NCCC(=O)OC(C)(C)C)(c4ccccc4)c4ccccc43)CC2)c1=O` [Co. No. 164]: the IC50 at MTP was 65.2 nM; in the assay with HepG2 cells, over 1000 nM.

As to `CCOC(=O)C[C@H](NC(=O)[C@@]1(c2ccccc2)CC[C@H](C(=O)N2CCC(NC(=O)c3ccccc3OC)CC2)c2ccccc21)C(=O)OCC` [Co. No. 72], the half-maximal inhibitory concentration (IC50) against MTP was 10.7 nM; in the assay on HepG2 cells it was over 1000 nM.

As for `CCCOC(=O)CCCNC(=O)[C@@]1(c2ccccc2)CC[C@H](C(=O)N2CCC(NC(=O)c3ccccc3OC)CC2)c2ccccc21` [Co. No. 249], the IC50 is 2.64 nM on MTP and 586 nM with HepG2 cells.

As for `O=C(NC1CCN(C(=O)C2CCC(C(=O)NCc3ccccc3)(c3ccccc3)c3ccccc32)CC1)c1ccccc1` (centres unmarked) [Co. No. 3], the IC50 on MTP is 17.7 nM; in the assay on HepG2 cells it was 80.5 nM.

Turning to `CCOC(=O)[C@@]1(c2cccc(F)c2)CC[C@@H](C(=O)N2CCC(NC(=O)c3ccccc3OC)CC2)c2cc(F)ccc21` [Co. No. 273], the IC50 is 165 nM against MTP and 1000 nM in the assay on HepG2 cells.

`CCOc1ncccc1C(=O)NC1CCN(C(=O)[C@@H]2CC[C@](C(=O)OC)(c3ccccc3)c3ccccc32)CC1` [Co. No. 57]: the IC50 was 5.68 nM against MTP and 69.7 nM in the assay on HepG2 cells.

Turning to `CCOC(=O)NCCCC[C@H](NC(=O)[C@@]1(c2ccccc2)CC[C@H](C(=O)N2CCC(NC(=O)c3ccccc3OC)CC2)c2ccccc21)C(=O)OC(C)C` [Co. No. 212], the IC50 is 4.34 nM against MTP and 22.3 nM with HepG2 cells.

For `COC(=O)[C@H](CCCCNC(=O)OC(C)(C)C)NC(=O)[C@@]1(c2ccccc2)CC[C@H](C(=O)N2CCC(NC(=O)c3ccccc3OC)CC2)c2ccccc21` [Co. No. 75], the IC50 against MTP is 2.24 nM; in the assay on HepG2 cells it was 20.2 nM.

In the case of `COc1ccccc1C(=O)NC1CCN(C(=O)[C@H]2CC[C@@](C(=O)NCC(=O)O)(c3ccccc3)c3ccccc32)CC1` [Co. No. 63], the IC50 at MTP was over 1000 nM; in the assay with HepG2 cells, over 10000 nM.

Take `CCNC(=O)[C@@]1(c2ccccc2)CC[C@H](C(=O)N2CCC(NC(=O)c3ccccc3OC)CC2)c2ccccc21` (single isomer, unassigned) [Co. No. 39]: the values for the IC50 against MTP and with HepG2 cells were 3 nM and 3.13 nM, respectively.

`CCOC(=O)C(Cc1c[nH]c2ccccc12)NC(=O)[C@@]1(c2ccccc2)CC[C@H](C(=O)N2CCC(NC(=O)c3ccccc3OC)CC2)c2ccccc21` (some centres unmarked) [Co. No. 86]: the figures for the IC50 on MTP and in the assay with HepG2 cells were 66.5 nM and 653 nM, respectively.

Consider `CCCOC(=O)CCNC(=O)[C@@]1(c2ccccc2)CC[C@H](C(=O)N2CCC(NC(=O)c3ccccc3OC)CC2)c2ccccc21` [Co. No. 279], for which the half-maximal inhibitory concentration (IC50) at MTP was 1.5 nM; with HepG2 cells, 14.1 nM.

On to `COc1ccccc1C(=O)NC1CCN(C(=O)[C@H]2CC[C@@](C(=O)N[C@@H](CCC(N)=O)C(=O)OC(C)(C)C)(c3ccccc3)c3ccccc32)CC1` [Co. No. 107], for which the IC50 is over 100 nM against MTP and over 1000 nM in the assay with HepG2 cells.

As to `CCNC(=O)[C@]1(c2ccccc2)CC[C@@H](C(=O)N2CCC(NC(=O)c3ccccc3C)CC2)c2ccccc21` [Co. No. 22], the results for the IC50 on MTP and in the assay on HepG2 cells were 28.9 nM and 155 nM, respectively.

With `COc1ccccc1C(=O)NC1CCN(C(=O)[C@H]2CC[C@@](C(=O)NCCC(=O)O)(c3ccccc3)c3ccccc32)CC1` [Co. No. 90], the IC50 against MTP is 2130 nM; in the assay on HepG2 cells, over 1000 nM.

`COC(=O)[C@@H](CCCCNC(=O)OC(C)C)NC(=O)[C@@]1(c2ccccc2)CC[C@H](C(=O)N2CCC(NC(=O)c3ccccc3OC)CC2)c2ccccc21` [Co. No. 219]: the 50% inhibitory concentration (IC50) is 4.24 nM against MTP and 300 nM in the assay with HepG2 cells.

Take `COc1ccccc1C(=O)NC1CCN(C(=O)[C@H]2CC[C@@](C(=O)N[C@@H](CCCCNC(=O)OC(C)(C)C)C(=O)OC(C)(C)C)(c3ccccc3)c3ccccc32)CC1` [Co. No. 109]: the IC50 against MTP is 2.43 nM; in the assay on HepG2 cells, 2.77 nM.

For `CC(C)OC(=O)CCNC(=O)[C@@]1(c2ccccc2)CC[C@H](C(=O)N2CCC(NC(=O)c3cccnc3N3CCN(C)CC3)CC2)c2ccccc21` [Co. No. 277], the IC50 was 11.4 nM against MTP and 108 nM in the assay on HepG2 cells.

Regarding `COc1ccccc1C(=O)NC1CCN(C(=O)[C@H]2CC[C@@](C(=O)NCCCCC(=O)OC(C)C)(c3ccccc3)c3ccccc32)CC1` [Co. No. 206], the IC50 against MTP is 2.96 nM; with HepG2 cells, 42.4 nM.

With `COc1ccccc1C(=O)NC1CCN(C(=O)[C@H]2CC[C@@](C(=O)N3CCC[C@H]3C(=O)OC(C)(C)C)(c3ccccc3)c3ccccc32)CC1` [Co. No. 110], the IC50 was over 100 nM against MTP and 245 nM with HepG2 cells.

As to `CCOC(=O)[C@]1(c2ccccc2)CC[C@@H](C(=O)N2CCC(NC(=O)c3ccccc3OC)CC2)c2ccccc21` [Co. No. 35], the values for the IC50 at MTP and in the assay on HepG2 cells were 1710 nM and 5370 nM, respectively.

For `CCOC(=O)[C@@]1(c2ccccc2)CC[C@H](C(=O)N2CCC(NC(=O)c3ccccc3)CC2)c2ccccc21` (single isomer, unassigned) [Co. No. 32], the results for the IC50 against MTP and in the assay on HepG2 cells were 1.9 nM and 7.52 nM, respectively.

Take `CCOC(=O)[C@]1(c2ccccc2)CC[C@@H](C(=O)N2CCC(NC(=O)c3ccccc3O)CC2)c2ccccc21` [Co. No. 42]: the values for the IC50 at MTP and in the assay with HepG2 cells were over 10000 nM and 1000 nM, respectively.

For the compound `CCNC(=O)[C@]1(c2ccccc2)CC[C@@H](C(=O)N2CC[C@@H](NC(=O)c3cc(Cl)c(N)cc3OC)[C@@H](OC)C2)c2ccccc21` [Co. No. 23], the IC50 was 60.3 nM at MTP and 232 nM with HepG2 cells.

In the case of `CCOC(=O)[C@]1(c2ccccc2)CC[C@@H](C(=O)N2CCC(NC(=O)c3ccccc3)CC2)c2ccccc21` [Co. No. 33], the IC50 on MTP and in the assay on HepG2 cells was over 1000 nM throughout.

Take `COc1ccccc1C(=O)NC1CCN(C(=O)[C@H]2CC[C@](C(N)=O)(c3ccccc3)c3ccccc32)CC1` [Co. No. 40]: the figures for the IC50 on MTP and in the assay with HepG2 cells were over 10000 nM and 70.6 nM, respectively.

Regarding `COc1ncccc1C(=O)NC1CCN(C(=O)[C@H]2CC[C@@](C(=O)NCCC(=O)OC(C)C)(c3ccccc3)c3ccccc32)CC1` [Co. No. 280], the IC50 against MTP was 0.82 nM; with HepG2 cells, 3.82 nM.
